The source of these data is PubChem BioAssay AID248 (DTP/NCI, 2004).

Molecules are shown by their SMILES. “And” between values parts separate entries of the source, which are not always exact repeats. Equal entries are not always repeated. Toxic doses and inconclusive results are not listed.

The test system of this test is L1210 leukemia ip in BDF1 mice, survival T/C. The experiment in a line: NCI In Vivo Anticancer Drug Screen. Data for tumor model L1210 Leukemia (intraperitoneal) in B6D2F1 (BDF1) mice. To be noted: endpoint: mean survival time, higher = longer survival. The method, boiled down:
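Transplantable tumor model; survival measured in treated vs vehicle control mice. Value = treated/control.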

The mark [1] stands for this setting: dose: 100.0 mg/kg/injection, schedule: Q04DX002 (ip), vehicle: saline.
The mark [2] stands for this setting: dose: 200.0 mg/kg/injection, schedule: Q04DX002 (ip), vehicle: saline.
Setting [3] is: dose: 400.0 mg/kg/injection, schedule: Q04DX002 (ip), vehicle: saline.
Setting [4] is: dose: 100.0 mg/kg/injection, schedule: Q01DX001 (ip), vehicle: Klucel (hydroxypropylcellulose) (HPC).
Setting [5] is: dose: 200.0 mg/kg/injection, schedule: Q01DX001 (ip), vehicle: Klucel (hydroxypropylcellulose) (HPC).

For `O=NN(CCF)C(=O)NC1CCC(C(=O)O)CC1` (stereo unspecified), the T/C runs as follows: (dose: 4.0 mg/kg/injection, schedule: Q01DX001 (ip), vehicle: saline with Tween-80) 105 % of control and 106 % of control; (dose: 6.0 mg/kg/injection, schedule: Q01DX001 (ip), vehicle: saline with Tween-80) 108 % of control; (dose: 9.0 mg/kg/injection, schedule: Q01DX001 (ip), vehicle: saline with Tween-80) 116 % of control and 119 % of control; (dose: 13.0 mg/kg/injection, schedule: Q01DX001 (ip), vehicle: saline with Tween-80) 117 % of control; (dose: 20.0 mg/kg/injection, schedule: Q01DX001 (ip), vehicle: saline with Tween-80) 152 % of control; (dose: 30.0 mg/kg/injection, schedule: Q01DX001 (ip), vehicle: saline with Tween-80) 263 % of control and 206 % of control. Also, the T/C reads like this: (dose: 45.0 mg/kg/injection, schedule: Q01DX001 (ip), vehicle: saline with Tween-80) 306 % of control and 432 % of control; (dose: 66.0 mg/kg/injection, schedule: Q01DX001 (ip), vehicle: saline with Tween-80) 500 % of control.

As for `O=CN(O)CC(=O)O.[Zn]`, the T/C was 105 % of control (dose: 6.25 mg/kg/injection, schedule: Q01DX009 (ip), vehicle: saline); 100 % of control (dose: 12.5 mg/kg/injection, schedule: Q01DX009 (ip), vehicle: saline); 120 % of control (dose: 25.0 mg/kg/injection, schedule: Q01DX009 (ip), vehicle: saline).

For `Cc1cc2c(=S)nc(N)[nH]c2nc1C`, the T/C (dose: 100.0 mg/kg/injection, schedule: Q01DX Z (ip), vehicle: methylcellulose (MC)) was 105 % of control and the T/C (dose: 200.0 mg/kg/injection, schedule: Q01DX Z (ip), vehicle: methylcellulose (MC)) is 103 % of control.

Consider `CNC(=S)Nc1ccc(C)c(Cl)c1`, for which the T/C under setting [1] is 104 % of control, the T/C under setting [2] is 108 % of control and the T/C under setting [3] is 106 % of control.

`N=Nc1c(O)[nH]c2ccccc12`: the T/C is 92 % of control (dose: 100.0 mg/kg/injection, schedule: Q04DX002 (ip), vehicle: Klucel (hydroxypropylcellulose) (HPC)); 96 % of control (dose: 200.0 mg/kg/injection, schedule: Q04DX002 (ip), vehicle: Klucel (hydroxypropylcellulose) (HPC)); 92 % of control (dose: 400.0 mg/kg/injection, schedule: Q04DX002 (ip), vehicle: Klucel (hydroxypropylcellulose) (HPC)).

Regarding `O=S(=O)(O)OC1CCCC1S(=O)(=O)O` (stereo unspecified), the T/C was 96 % of control (dose: 50.0 mg/kg/injection, schedule: Q01DX001 (ip), vehicle: carboxymethylcellulose (CMC)); 107 % of control (dose: 100.0 mg/kg/injection, schedule: Q01DX001 (ip), vehicle: carboxymethylcellulose (CMC)); 107 % of control (dose: 200.0 mg/kg/injection, schedule: Q01DX001 (ip), vehicle: carboxymethylcellulose (CMC)); 86 % of control (dose: 400.0 mg/kg/injection, schedule: Q01DX001 (ip), vehicle: carboxymethylcellulose (CMC)).

Turning to `O=C(O)c1ccc(S(=O)(=O)F)c(Cl)c1`, the T/C is, setting by setting: (dose: 100.0 mg/kg/injection, schedule: Q01DX009 (ip), vehicle: saline with Tween-80) 100 % of control; (dose: 200.0 mg/kg/injection, schedule: Q01DX009 (ip), vehicle: saline with Tween-80) 102 % of control; (dose: 400.0 mg/kg/injection, schedule: Q01DX009 (ip), vehicle: saline with Tween-80) 89 % of control.

In the case of `NC(=O)n1ccc(CC(O)(C(F)(F)F)C(F)(F)F)n1`, the T/C reads like this: (dose: 100.0 mg/kg/injection, schedule: Q01DX001 (ip), vehicle: saline with Tween-80) 96 % of control; (dose: 200.0 mg/kg/injection, schedule: Q01DX001 (ip), vehicle: saline with Tween-80) 96 % of control; (dose: 400.0 mg/kg/injection, schedule: Q01DX001 (ip), vehicle: saline with Tween-80) 96 % of control.

With `CCN1CCC(CNc2cc(C)nc(/N=C(\N)Nc3ccc(Cl)c(Cl)c3)n2)C1` (stereo unspecified), the T/C is 98 % of control (dose: 12.5 mg/kg/injection, schedule: Q04DX003 (ip), vehicle: Klucel (hydroxypropylcellulose) (HPC)); 102 % of control (dose: 25.0 mg/kg/injection, schedule: Q04DX003 (ip), vehicle: Klucel (hydroxypropylcellulose) (HPC)); 107 % of control (dose: 50.0 mg/kg/injection, schedule: Q04DX003 (ip), vehicle: Klucel (hydroxypropylcellulose) (HPC)).

For `O=C1C=C(N2C3C4CCC(C4)C32)C(=O)C=C1c1ccccc1` (stereo unspecified), the T/C (dose: 50.0 mg/kg/injection, schedule: Q01DX001 (ip), vehicle: Klucel (hydroxypropylcellulose) (HPC)) is 96 % of control; the T/C under setting [4] was 97 % of control; the T/C under setting [5] is 94 % of control.

Consider `Nc1cc(Cl)c2[nH]cnc2n1`, for which the T/C (dose: 33.0 mg/kg/injection, schedule: Q01DX009 (ip), vehicle: Klucel (hydroxypropylcellulose) (HPC)) was 179 % of control; the T/C (dose: 50.0 mg/kg/injection, schedule: Q01DX009 (ip), vehicle: Klucel (hydroxypropylcellulose) (HPC)) is 151 % of control and 159 % of control; the T/C (dose: 75.0 mg/kg/injection, schedule: Q01DX009 (ip), vehicle: Klucel (hydroxypropylcellulose) (HPC)) was 161 % of control; the T/C under setting [4] is 118 % of control; the T/C (dose: 100.0 mg/kg/injection, schedule: Q01DX009 (ip), vehicle: Klucel (hydroxypropylcellulose) (HPC)) is 97 % of control; the T/C (dose: 133.0 mg/kg/injection, schedule: Q01DX001 (ip), vehicle: Klucel (hydroxypropylcellulose) (HPC)) was 119 % of control. Moreover, the T/C is, setting by setting: under setting [5], 121 % of control; (dose: 300.0 mg/kg/injection, schedule: Q01DX001 (ip), vehicle: Klucel (hydroxypropylcellulose) (HPC)) 122 % of control.

For `CCCC(C)CC1CCCCC1=O` (stereo unspecified), the T/C was 97 % of control (dose: 75.0 mg/kg/injection, schedule: Q04DX003 (ip), vehicle: saline); 96 % of control (dose: 150.0 mg/kg/injection, schedule: Q04DX003 (ip), vehicle: saline); 103 % of control (dose: 300.0 mg/kg/injection, schedule: Q04DX003 (ip), vehicle: saline).

Take `C/C=C\CC(C(C)=O)C(=O)OCC` (stereo unspecified): the T/C by setting is: (dose: 75.0 mg/kg/injection, schedule: Q01DX009 (ip), vehicle: saline) 92 % of control; (dose: 100.0 mg/kg/injection, schedule: Q04DX003 (ip), vehicle: saline) 105 % of control; (dose: 150.0 mg/kg/injection, schedule: Q01DX009 (ip), vehicle: saline) 92 % of control; (dose: 200.0 mg/kg/injection, schedule: Q04DX003 (ip), vehicle: saline) 91 % of control; (dose: 300.0 mg/kg/injection, schedule: Q01DX009 (ip), vehicle: saline) 97 % of control; (dose: 400.0 mg/kg/injection, schedule: Q04DX003 (ip), vehicle: saline) 104 % of control.

For the molecule `COc1ccc(C(=O)NC(=O)C(C(=O)c2ccc(OC)cc2)c2ccccc2)cc1` (stereo unspecified), the T/C (dose: 100.0 mg/kg/injection, schedule: Q01DX001 (ip), vehicle: other) is 86 % of control.

On to `O=C1OCC/C1=C\C1CC=CCC1` (stereo unspecified), for which the T/C was 96 % of control (dose: 67.0 mg/kg/injection, schedule: Q04DX003 (ip), vehicle: saline with Tween-80); 88 % of control (dose: 100.0 mg/kg/injection, schedule: Q04DX003 (ip), vehicle: saline with Tween-80); 96 % of control (dose: 150.0 mg/kg/injection, schedule: Q04DX003 (ip), vehicle: saline with Tween-80).

Consider `O=C1OCC/C1=C/CCCCC/C=C1\CCOC1=O`, for which the T/C was 103 % of control (dose: 100.0 mg/kg/injection, schedule: Q01DX001 (sc), vehicle: olive oil, sesame oil, peanut oil); 104 % of control (dose: 100.0 mg/kg/injection, schedule: Q04DX003 (sc), vehicle: olive oil, sesame oil, peanut oil); 100 % of control (dose: 200.0 mg/kg/injection, schedule: Q01DX001 (sc), vehicle: olive oil, sesame oil, peanut oil); 100 % of control (dose: 200.0 mg/kg/injection, schedule: Q04DX003 (sc), vehicle: olive oil, sesame oil, peanut oil); 96 % of control (dose: 400.0 mg/kg/injection, schedule: Q01DX001 (sc), vehicle: olive oil, sesame oil, peanut oil); 102 % of control (dose: 400.0 mg/kg/injection, schedule: Q04DX003 (sc), vehicle: olive oil, sesame oil, peanut oil).

For the molecule `CCCOCCOCCOC(C)Oc1cc(OC)ccc1OC` (stereo unspecified), the T/C runs as follows: under setting [1], 93 % of control; under setting [2], 111 % of control; under setting [3], 96 % of control.

As to `O=c1[nH]c(-c2ccccc2)c(CO)c(=O)[nH]1`, the T/C was 103 % of control (dose: 75.0 mg/kg/injection, schedule: Q04DX003 (ip), vehicle: Klucel (hydroxypropylcellulose) (HPC)); 96 % of control under setting [4]; 97 % of control (dose: 150.0 mg/kg/injection, schedule: Q04DX003 (ip), vehicle: Klucel (hydroxypropylcellulose) (HPC)); 102 % of control under setting [5]; 105 % of control (dose: 300.0 mg/kg/injection, schedule: Q04DX003 (ip), vehicle: Klucel (hydroxypropylcellulose) (HPC)); 109 % of control (dose: 400.0 mg/kg/injection, schedule: Q01DX001 (ip), vehicle: Klucel (hydroxypropylcellulose) (HPC)).
